Where two headings read alike, the source gives them in different places. Blank lines part the entries; values can stand above or below the compound they belong to.
Experiments:
MIF tautomerase activity = molecular target: T1, MIF tautomerase activity (Homo sapiens, UniProt P14174); settings: literature, Cheng & Al-Abed 2006; cited from earlier work
T1 sequence (P14174 2-115 limits assumed): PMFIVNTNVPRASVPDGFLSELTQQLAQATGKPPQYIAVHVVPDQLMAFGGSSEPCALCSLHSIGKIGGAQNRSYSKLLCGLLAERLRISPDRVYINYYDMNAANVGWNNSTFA

[1] = molecular target: T2, Human MIF (MIF tautomerase activity) (Homo sapiens, UniProt P14174); assay: HPP tautomerase assay; type: biochemical; settings: for HPP Max Inhib / HPP % MaxInhib: number before @; for HPP IC50: Table 8
T2 construct: made in house
T2 sequence (P14174 2-115 limits assumed): T1 sequence (P14174 2-115 limits assumed)

[2] = molecular target: T3, MIF-CD74 Binding (biotin-labeled recombinant human MIF, recombinant human MIF receptor CD74 ectodomain) (Homo sapiens, UniProt P14174); assay: MIF-CD74 binding (capture) assay; set-up: concentration of C74 % MaxInhib (number after @): unit not given here; settings: for CD74 % MaxInhib / C74 % MaxInhib: number before @; for concentration of C74 % MaxInhib (number after @) / C74 % MaxInhib: Table 18; for CD74 IC50: Table 6, data cell c9
T3 sequence (P14174 2-115 limits assumed): T1 sequence (P14174 2-115 limits assumed)

[3] = press release, cited from earlier work
ovarian cancer cell line = assay: growth of an ovarian cancer cell line; type: cell-based
Text: KSP inhibitor ARRY-520 is used as a substitute for Paclitaxel in Type I ovarian cancer cells. J Transl Med. 7:63.

[4] = test system: MIF-dependent signal transduction (ERK1/2 phosphorylation); assay: MIF-dependent signal transduction in cells (ERK1/2 phosphorylation); type: cell-based; settings: compared to isoxazoline-1
Method: Two additional assays were performed on compounds according to the present invention. In the first, MIF-dependent signal transduction in cells as evidenced by a reduction in ERK1/2 phosphorylation and its inhibitory action is compared to the known small molecule MIF antagonist, isoxazoline-1 following the assay reported in Leng L., Metz C, Fang Y, Xu J, Donnelly S, Baugh J, Delonery T, Chen Y, Mitchell R A, and Bucala R. 2003. MIF Signal Transduction Initiated by Binding to CD74. J Exp Med 197, 1467-1476.

[5] = Table 6, data cell c7, read-out: HPP IC50

SMILES: CC(C)(C)OC(=O)C[C@H]1CC(c2ccc(O)c(F)c2)=NO1 [(R)-17]
potency (inhibition of MIF tautomerase activity) (MIF tautomerase activity): 0.55 µM

IC50 ([1]; read-out: inhibitor in the HPP tautomerase assay): 4.5 µM
activity in the capture assay [2]: inactive
SMILES: Ic1cc(-c2ccccc2)ncn1 [Compound 4-IPP, 4-iodo-6-phenylpyrimidine, reference compound]
anti-tumor activity ([3]; by blocking tumor-specific angiogenesis): exhibits anti-tumor activity
safety profile ([3]; laboratory studies): favorable safety profile

SMILES: N#Cc1ccc2c(=O)n(-c3ccc(Cl)cc3)sc2c1 [Compound 37]
activity in the ovarian cancer assay (growth inhibition) (ovarian cancer cell line): significant activity
IC50 ([1]; Table 3, read-out: HPP IC50): 3.1 µM
IC50 [1, 5]: 3.1 µM
Capture % Max. Inhib. ([2]; Table 3): 16%
CD74 % MaxInhib ([2]; Table 6, data cell c8): 16%

IC50 ([1]; Table 4, read-out: HPP IC50): 0.01 µM
concentration of CD74 % MaxInhib (number after @) ([2]; Table 4): 0.0078 µM
SMILES: Cc1ccc2oc(=O)n(Cc3cccc(O)c3)c2c1 [Compound 098]
activity in the ovarian cancer assay (growth inhibition) (ovarian cancer cell line): significant activity
inhibitory action on MIF-dependent ERK1/2 phosphorylation [4]: significant inhibitory action

concentration of HPP Max Inhib (number after @) ([1]; Table 13): 700 µM
HPP Max Inhib ([1]; Table 13, data cell c5): 33%
concentration of CD74 % MaxInhib (number after @) ([2]; Table 13): 0.12 µM
CD74 % MaxInhib ([2]; Table 13): 17%
SMILES: O=C(c1cc2ccccc2o1)c1cc2cc(F)ccc2o1 [MIF-073]

concentration of HPP Max Inhib (number after @) ([1]; Table 18): 1000
HPP Max Inhib ([1]; Table 18): 40%
concentration of C74 % MaxInhib (number after @) [2]: 0.24
C74 % MaxInhib [2]: 8%
SMILES: COc1cccc(Cc2cn(-c3ccc(O)cc3)nn2)c1 [MIF-074]

IC50 ([1]; Table 18, read-out: HPP IC50): 790 µM
concentration of C74 % MaxInhib (number after @) [2]: 0.0078
C74 % MaxInhib [2]: 12%
SMILES: COc1cccc(C(=O)c2cn(-c3ccc(O)cc3)nn2)c1 [MIF-076]

concentration of HPP Max Inhib (number after @) ([1]; Table 13): 1000 µM
HPP Max Inhib ([1]; Table 13, data cell c5): 30%
concentration of CD74 % MaxInhib (number after @) ([2]; Table 13): 0.24 µM
CD74 % MaxInhib ([2]; Table 13): 16%
SMILES: Cc1ccc2cc(C(=O)c3cc4ccccc4o3)oc2c1 [MIF-077]

IC50 ([1]; Table 18, read-out: HPP IC50): 475 µM
concentration of C74 % MaxInhib (number after @) [2]: 0.078
C74 % MaxInhib [2]: 30%
SMILES: Cc1cccc(Cc2cn(-c3ccc(O)cc3)nn2)c1 [MIF-079]

concentration of HPP Max Inhib (number after @) ([1]; Table 14): 3 µM
HPP Max Inhib ([1]; Table 14): 33%
concentration of CD74 % MaxInhib (number after @) ([2]; Table 14): 0.078 µM
CD74 % MaxInhib ([2]; Table 14): 12%
SMILES: COc1ccc2cc(C(=O)N3CCc4ccccc43)oc2c1 [MIF-083]

IC50 ([1]; Table 18, read-out: HPP IC50): 65 µM
concentration of C74 % MaxInhib (number after @) [2]: 0.078
C74 % MaxInhib [2]: 36%
SMILES: COc1ccc(Cc2cn(-c3ccc(O)cc3)nn2)cc1 [MIF-086]

IC50 ([1]; Table 18, read-out: HPP IC50): 690 µM
concentration of C74 % MaxInhib (number after @) [2]: 0.078
C74 % MaxInhib [2]: 23%
SMILES: Oc1ccc(Cc2cn(-c3ccc(O)cc3)nn2)cc1 [MIF-087]

concentration of HPP Max Inhib (number after @) ([1]; Table 14): 5 µM
HPP Max Inhib ([1]; Table 14): 23%
concentration of CD74 % MaxInhib (number after @) ([2]; Table 14): 0.24 µM
CD74 % MaxInhib ([2]; Table 14): 30%
SMILES: COc1ccc2oc(C(=O)N3CCc4ccccc43)cc2c1 [MIF-088]

concentration of HPP Max Inhib (number after @) ([1]; Table 14): 1 µM
HPP Max Inhib ([1]; Table 14): 19%
concentration of CD74 % MaxInhib (number after @) ([2]; Table 14): 0.12 µM
CD74 % MaxInhib ([2]; Table 14): 30%
SMILES: O=C(c1cc2cc(F)ccc2o1)N1CCc2ccccc21 [MIF-089]

IC50 ([1]; Table 18, read-out: HPP IC50): 70 µM
concentration of C74 % MaxInhib (number after @) [2]: 0.078
C74 % MaxInhib [2]: 22%
SMILES: COc1ccc(Cc2cn(-c3ccc(O)cc3)nn2)cc1OC [MIF-090]

IC50 ([1]; Table 14, read-out: HPP IC50): 760 µM
concentration of CD74 % MaxInhib (number after @) ([2]; Table 14): 0.95 µM
CD74 % MaxInhib ([2]; Table 14): 33%
SMILES: Cc1ccc2c(c1)CCN2C(=O)c1cc2ccccc2o1 [MIF-094]

IC50 ([1]; Table 14, read-out: HPP IC50): 910 µM
concentration of CD74 % MaxInhib (number after @) ([2]; Table 14): 0.039 µM
CD74 % MaxInhib ([2]; Table 14): 33%
SMILES: Cc1ccc2c(c1)N(C(=O)c1cc3ccccc3o1)CC2 [MIF-095]

IC50 ([1]; Table 14, read-out: HPP IC50): 1360 µM
concentration of CD74 % MaxInhib (number after @) ([2]; Table 14): 1.87 µM
CD74 % MaxInhib ([2]; Table 14): 19%
SMILES: O=C(c1cc2ccccc2o1)N1CCc2cc(F)ccc21 [MIF-096]

SMILES: O=c1oc2ccc(F)cc2n1Cc1cccc(O)c1 [MIF-108]
activity in the ovarian cancer assay (growth inhibition) (ovarian cancer cell line): significant activity

concentration of HPP % MaxInhib (number after @) ([1]; Table 7): 0.1 µM
HPP % MaxInhib ([1]; Table 7, data cell c6): 13%
concentration of CD74 % MaxInhib (number after @) ([2]; Table 7): 0.078 µM
CD74 % MaxInhib ([2]; Table 7, data cell c7): 11%
SMILES: Clc1ccc2nc(-c3ccccc3)oc2c1 [MIF-120]

HPP % MaxInhib ([1]; Table 7, data cell c6): 43%
concentration of CD74 % MaxInhib (number after @) ([2]; Table 7): 0.078 µM
CD74 % MaxInhib ([2]; Table 7, data cell c7): 27%
SMILES: Clc1ccc(-c2nc3ccc(Cl)cc3o2)cc1 [MIF-121]

HPP % MaxInhib ([1]; Table 7, data cell c6): 31%
concentration of CD74 % MaxInhib (number after @) ([2]; Table 7): 3.76 µM
CD74 % MaxInhib ([2]; Table 7, data cell c7): 13%
SMILES: Clc1ccc(-c2nc3cc(Cl)ccc3o2)cc1 [MIF-122]

concentration of HPP % MaxInhib (number after @) ([1]; Table 7): 50 µM
HPP % MaxInhib ([1]; Table 7, data cell c6): 14%
concentration of CD74 % MaxInhib (number after @) ([2]; Table 7): 3.76 µM
CD74 % MaxInhib ([2]; Table 7, data cell c7): 26%
SMILES: Cc1ccc2nc(-c3ccc(Cl)cc3)oc2c1 [MIF-123]

concentration of HPP % MaxInhib (number after @) ([1]; Table 7): 1000 µM
HPP % MaxInhib ([1]; Table 7, data cell c6): 29%
concentration of CD74 % MaxInhib (number after @) ([2]; Table 7): 0.078 µM
CD74 % MaxInhib ([2]; Table 7, data cell c7): 11%
SMILES: Cc1ccc2oc(-c3ccc(Cl)cc3)nc2c1 [MIF-124]

HPP % MaxInhib ([1]; Table 9): 45%
concentration of CD74 % MaxInhib (number after @) ([2]; Table 9): 0.12 µM
CD74 % MaxInhib ([2]; Table 9): 19%
SMILES: O=C1c2cc(F)ccc2CN1c1ccc(Cl)cc1 [MIF-125]

concentration of HPP % MaxInhib (number after @) ([1]; Table 9): 100 µM
HPP % MaxInhib ([1]; Table 9): 32%
concentration of CD74 % MaxInhib (number after @) ([2]; Table 9): 0.078 µM
CD74 % MaxInhib ([2]; Table 9): 7%
SMILES: O=C1c2ccc(F)cc2CN1c1ccc(Cl)cc1 [MIF-126]

IC50 ([1]; Table 10, read-out: HPP IC50): 240 µM
concentration of CD74 % MaxInhib (number after @) ([2]; Table 10): 0.34 µM
CD74 % MaxInhib ([2]; Table 10): 22%
SMILES: Fc1ccc2cc(-c3ccc(Cl)cc3)[nH]c2c1 [MIF-127]

IC50 ([1]; Table 10, read-out: HPP IC50): 280 µM
concentration of CD74 % MaxInhib (number after @) ([2]; Table 10): 0.0039 µM
CD74 % MaxInhib ([2]; Table 10): 20%
SMILES: Fc1ccc2[nH]c(-c3ccc(Cl)cc3)cc2c1 [MIF-128]

IC50 ([1]; Table 11, read-out: HPP IC50): 490 µM
concentration of CD74 % MaxInhib (number after @) ([2]; Table 11): 0.12 µM
CD74 % MaxInhib ([2]; Table 11): 27%
SMILES: Fc1ccc2nn(-c3ccc(Cl)cc3)cc2c1 [MIF-129]

HPP % MaxInhib ([1]; Table 12): 28%
concentration of CD74 % MaxInhib (number after @) ([2]; Table 12): 0.34 µM
CD74 % MaxInhib ([2]; Table 12): 21%
SMILES: Fc1ccc2[nH]c(-c3ccc(Cl)cc3)nc2c1 [MIF-130]

HPP % MaxInhib ([1]; Table 11): 30%
concentration of CD74 % MaxInhib (number after @) ([2]; Table 11): 0.12 µM
CD74 % MaxInhib ([2]; Table 11): 29%
SMILES: Fc1ccc2cn(-c3ccc(Cl)cc3)nc2c1 [MIF-131]

SMILES: O=c1c2ccc(F)cc2sn1-c1cccc(Cl)c1 [MIF-132]
IC50 [1, 5]: 5 µM
concentration of CD74 % MaxInhib (number after @) ([2]; Table 6): 0.078 µM
CD74 % MaxInhib ([2]; Table 6, data cell c8): 20%

IC50 [1, 5]: 6.4 µM
concentration of CD74 % MaxInhib (number after @) ([2]; Table 6): 0.078 µM
SMILES: N#Cc1ccc(-n2sc3cc(F)ccc3c2=O)cc1 [MIF-133]

SMILES: O=c1c2ccc(F)c(F)c2sn1-c1ccc(Cl)cc1 [MIF-134]
IC50 [1, 5]: 5.6 µM
concentration of CD74 % MaxInhib (number after @) ([2]; Table 6): 3.76 µM
CD74 % MaxInhib ([2]; Table 6, data cell c8): 11%

HPP IC50 [1]: agonist
concentration of CD74 % MaxInhib (number after @) ([2]; Table 8): 0.078 µM
SMILES: c1ccc(-c2nc3ccccc3s2)cc1 [MIF-137]

HPP IC50 [1]: agonist
concentration of CD74 % MaxInhib (number after @) ([2]; Table 8): 0.078 µM
CD74 % MaxInhib ([2]; Table 8): 20%
SMILES: Cc1ccc2nc(-c3ccccc3)sc2c1 [MIF-138]

SMILES: O=c1c2cc(F)ccc2sn1-c1ccc(Cl)cc1 [MIF-141]
IC50 [1, 5]: 5.6 µM
CD74 IC50 [2]: agonist

SMILES: COc1ccc(-n2sc3ccc(F)cc3c2=O)cc1 [MIF-142]
IC50 [1, 5]: 6.5 µM
CD74 IC50 [2]: agonist

SMILES: O=c1c2cc(F)c(F)cc2sn1-c1ccc(Cl)cc1 [MIF-143]
IC50 [1, 5]: 4.9 µM
CD74 IC50 [2]: agonist

Source: US10202343B2, “MIF modulators” (YALE UNIVERSITY, priority 2008, dated 2019)
